According to ChEMBL document CHEMBL3397011, “A novel molecule with notable activity against multi-drug resistant tuberculosis” (Bioorg Med Chem Lett, 2015):
Values after ≈ are worked out from the molar mass of the structure shown. Active and inactive are the calls of the source. No cut-off for these calls is given here.

How the values were obtained:
Type in all cases: functional
[1] = test system: Mycobacterium tuberculosis; assay: Antimicrobial activity against isoniazid and rifampin resistant Mycobacterium tuberculosis after 21 days at 37 degC by agar dilution drug susceptibility assay
[2] = test system: Mycobacterium tuberculosis; assay: (§1) Antimicrobial activity against isoniazid and rifampin resistant Mycobacterium tuberculosis after 21 days at 37 degC in presence of PA-824 by agar dilution drug susceptibility assay; details: 504 h
[3] = test system: Mycobacterium tuberculosis; assay: (§2) Antimicrobial activity against isoniazid and rifampin resistant Mycobacterium tuberculosis assessed as reduction in colony forming unit after 21 days at 37 degC in presence of PA-824 by agar dilution drug susceptibility assay; parameters: scale not given: the % may be the effect or the level left
[4] = test system: Mycobacterium tuberculosis; assay: (§3) Antimicrobial activity against isoniazid and rifampin resistant Mycobacterium tuberculosis assessed as ratio of MIC combination/MIC compound alone after 21 days at 37 degC in presence of PA-824 by agar dilution drug susceptibility assay
[5] = test system: Mycobacterium tuberculosis; assay: as §3, with “1-(4-(4-(1H-pyrrol-1-yl)phenyl)piperazin-1-yl)-4-(5-(3,5-difluorobenzyl)-1-(2-fluorobenzyl)-2-oxo-1,2-dihydropyridin-3-yl)-2-hydroxybut-2-ene-1,4-dione” for “PA-824”
[6] = test system: Mycobacterium tuberculosis; assay: as §2, with “1-(4-(4-(1H-pyrrol-1-yl)phenyl)piperazin-1-yl)-4-(5-(3,5-difluorobenzyl)-1-(2-fluorobenzyl)-2-oxo-1,2-dihydropyridin-3-yl)-2-hydroxybut-2-ene-1,4-dione” for “PA-824”; parameters: scale not given: the % may be the effect or the level left
[7] = test system: Mycobacterium tuberculosis; assay: as §1, with “1-(4-(4-(1H-pyrrol-1-yl)phenyl)piperazin-1-yl)-4-(5-(3,5-difluorobenzyl)-1-(2-fluorobenzyl)-2-oxo-1,2-dihydropyridin-3-yl)-2-hydroxybut-2-ene-1,4-dione” for “PA-824”

SMILES: O=C(/C=C(\O)C(=O)N1CCN(c2ccc(-n3cccn3)cc2)CC1)c1cc(Cc2cc(F)cc(F)c2)cn(Cc2ccccc2F)c1=O
- MIC ([1]; 504 h): 3.12 µg/mL (≈ 4.78 µM)

SMILES: O=C(/C=C(\O)C(=O)N1CCN(c2ccc(-n3ccnc3)cc2)CC1)c1cc(Cc2cc(F)cc(F)c2)cn(Cc2ccccc2F)c1=O
- MIC ([1]; 504 h): 6.25 µg/mL (≈ 9.56 µM)

SMILES: CN[C@@H]1[C@H](O[C@H]2[C@H](O[C@H]3[C@H](O)[C@@H](O)[C@H](N=C(N)N)[C@@H](O)[C@@H]3N=C(N)N)O[C@@H](C)[C@]2(O)C=O)O[C@@H](CO)[C@H](O)[C@H]1O
- MIC [1]: Active

SMILES: O=C(/C=C(\O)C(=O)N1CCN(c2ccc(-n3cccc3)cc2)CC1)c1cc(Cc2cc(F)cc(F)c2)cn(Cc2ccccc2F)c1=O
- MIC [2]: 0.195 µg/mL
- MIC ([1]; 504 h): 1.56 µg/mL (≈ 2.39 µM)
- Activity [3]: >99%
- fractional inhibitory concentration index (FICI) [4]: 0.125

SMILES: O=[N+]([O-])c1cn2c(n1)OC[C@@H](OCc1ccc(OC(F)(F)F)cc1)C2 [PRETOMANID]
- MIC ([1]; 504 h): 0.126 µg/mL (≈ 0.351 µM)
- fractional inhibitory concentration index (FICI) [5]: 0.246
- Activity [6]: >99%
- MIC [7]: 0.031 µg/mL

SMILES: O=C(/C=C(\O)C(=O)N1CCN(c2ccc(-n3cccc3)cc2)CC1)c1cc(Cc2ccccc2)cn(Cc2ccccc2)c1=O
- MIC ([1]; 504 h): 3.12 µg/mL (≈ 5.22 µM)
